Activity calls are given as the source filed them. The calls are words filed in the database; no cut-off is given here.
System: Haemophilus influenzae
Assay: Antibacterial activity against gram-negative bacteria, Haemophilus influenzae; A - found to be active
Format: functional, organism-based

CC[C@H]1OC(=O)[C@H](C)[C@@H](O[C@H]2C[C@@](C)(OC)[C@@H](O)[C@H](C)O2)[C@H](C)[C@@H](O[C@@H]2O[C@H](C)C[C@H](N(C)C)[C@H]2O)[C@@](C)(O)C[C@@H](C)[C@@H]2O[C@]1(C)[C@@H](N)[C@H]2C
Activity: Active

Source: ChEMBL document CHEMBL1128652, “Synthesis of the macrolide antibiotic, oxolide” (Bioorg Med Chem Lett, 1995)
